From PubChem BioAssay AID1259407 (Chemical Carcinogenesis Research Information System (CCRIS), 2018)
Activity calls are given as the source filed them. The rule behind the calls is not given here.

Tested on: CCRIS mutagenicity, Ames/micronucleus/aberration tests
Test: CCRIS mutagenicity studies
[1] = Test System: AMES SALMONELLA TYPHIMURIUM, Strain/Indicator: TA98, Metabolic Activation: NONE, Method: PREINCUBATION
[2] = Test System: AMES SALMONELLA TYPHIMURIUM, Strain/Indicator: TA100, Metabolic Activation: NONE, Method: PREINCUBATION
[3] = Test System: AMES SALMONELLA TYPHIMURIUM, Strain/Indicator: TA98, Metabolic Activation: S-9, Method: STANDARD PLATE
[4] = Test System: AMES SALMONELLA TYPHIMURIUM, Strain/Indicator: TA100, Metabolic Activation: NONE, Method: STANDARD PLATE
[5] = Test System: AMES SALMONELLA TYPHIMURIUM, Strain/Indicator: TA100, Metabolic Activation: S-9, Method: STANDARD PLATE
[6] = Test System: AMES SALMONELLA TYPHIMURIUM, Strain/Indicator: TA98, Metabolic Activation: NONE, Method: STANDARD PLATE

CCc1c(O)c(=O)ccn1CC
mutagenic call (Test System: Mouse lymphoma, Strain/Indicator: L5178Y (tk+/tk-), Metabolic Activation: None, Method: Suspension/plate): active; positive | mutagenic call (Test System: Mouse lymphoma, Strain/Indicator: L5178Y (tk+/tk-), Metabolic Activation: Rat, Liver, S-9, Aroclor 1254, Method: Suspension/plate): active; positive

C=C1/C(=C\C=C2/CCC[C@]3(C)[C@@H]([C@H](C)CCCC(C)(C)O)CC[C@@H]23)C[C@@H](O)C[C@@H]1O
mutagenic call (End Point: IN VIVO CHROMOSOMAL ABERRATIONS, Test System: BONE MARROW CELLS, Species: RAT, Strain/Sex: WISTAR, Route: ORAL): inactive; negative

COC(=O)/C(C#N)=C/c1ccco1
mutagenic call [1]: inactive; negative

CSc1ccc([N+](=O)[O-])cc1[N+](=O)[O-]
mutagenic call (Test System: AMES SALMONELLA TYPHIMURIUM, Strain/Indicator: TA100(NR), Metabolic Activation: NONE, Method: PREINCUBATION): active; positive | mutagenic call (Test System: AMES SALMONELLA TYPHIMURIUM, Strain/Indicator: TA100/GSH-, Metabolic Activation: NONE, Method: PREINCUBATION): active; positive | mutagenic call [2]: active; positive

CC(=O)Nc1ccc(Oc2c(Cl)cc(Cl)cc2Cl)cc1
mutagenic call (Test System: AMES SALMONELLA TYPHIMURIUM, Strain/Indicator: TA98, Metabolic Activation: RAT, LIVER, S-9, AROCLOR 1254, Method: STANDARD PLATE): inactive; negative | mutagenic call [3]: inactive; negative | mutagenic call [4]: inactive; negative | mutagenic call (Test System: AMES SALMONELLA TYPHIMURIUM, Strain/Indicator: TA100, Metabolic Activation: RAT, LIVER, S-9, AROCLOR 1254, Method: STANDARD PLATE): active; positive | mutagenic call (Test System: AMES SALMONELLA TYPHIMURIUM, Strain/Indicator: TA100, Metabolic Activation: RAT, LIVER, S-9, KANECLOR 500, Method: STANDARD PLATE): active; positive | mutagenic call [5]: active; positive | mutagenic call (Test System: AMES SALMONELLA TYPHIMURIUM, Strain/Indicator: YG1021, Metabolic Activation: RAT, LIVER, S-9, AROCLOR 1254, Method: STANDARD PLATE): inactive; negative | mutagenic call (Test System: AMES SALMONELLA TYPHIMURIUM, Strain/Indicator: YG1021, Metabolic Activation: S-9, Method: STANDARD PLATE): inactive; negative | mutagenic call (Test System: AMES SALMONELLA TYPHIMURIUM, Strain/Indicator: YG1024, Metabolic Activation: RAT, LIVER, S-9, AROCLOR 1254, Method: STANDARD PLATE): active; positive | mutagenic call (Test System: AMES SALMONELLA TYPHIMURIUM, Strain/Indicator: YG1024, Metabolic Activation: S-9, Method: STANDARD PLATE): active; positive | mutagenic call (Test System: AMES SALMONELLA TYPHIMURIUM, Strain/Indicator: YG1026, Metabolic Activation: RAT, LIVER, S-9, AROCLOR 1254, Method: STANDARD PLATE): active; positive | mutagenic call (Test System: AMES SALMONELLA TYPHIMURIUM, Strain/Indicator: YG1026, Metabolic Activation: S-9, Method: STANDARD PLATE): active; positive | mutagenic call (Test System: AMES SALMONELLA TYPHIMURIUM, Strain/Indicator: YG1029, Metabolic Activation: RAT, LIVER, S-9, AROCLOR 1254, Method: STANDARD PLATE): active; positive | mutagenic call (Test System: AMES SALMONELLA TYPHIMURIUM, Strain/Indicator: YG1029, Metabolic Activation: S-9, Method: STANDARD PLATE): active; positive

O=[N+]([O-])c1c(Cl)cc2c(c1Cl)Oc1cc(Cl)c(Cl)cc1O2
mutagenic call [6]: inactive; negative | mutagenic call (Test System: AMES SALMONELLA TYPHIMURIUM, Strain/Indicator: TA98, Metabolic Activation: RAT, LIVER, S-9, AROCLOR, Method: STANDARD PLATE): inactive; negative | mutagenic call [4]: inactive; negative | mutagenic call (Test System: AMES SALMONELLA TYPHIMURIUM, Strain/Indicator: TA100, Metabolic Activation: RAT, LIVER, S-9, AROCLOR, Method: STANDARD PLATE): inactive; negative

O=Nc1ccc2ccccc2c1
mutagenic call [6]: active; positive | mutagenic call [3]: active; positive | mutagenic call [4]: active; positive | mutagenic call [5]: active; positive | mutagenic call (Test System: AMES SALMONELLA TYPHIMURIUM, Strain/Indicator: TA1538, Metabolic Activation: NONE, Method: STANDARD PLATE): active; positive

CCCCOC(=O)CCCCCCCCC(=O)OCCCC
mutagenic call (Test System: AMES SALMONELLA TYPHIMURIUM, Strain/Indicator: TA97, Metabolic Activation: NONE, Method: STANDARD PLATE): inactive; negative | mutagenic call (Test System: AMES SALMONELLA TYPHIMURIUM, Strain/Indicator: TA97, Metabolic Activation: S-9, Method: STANDARD PLATE): inactive; negative | mutagenic call [6]: inactive; negative | mutagenic call [3]: inactive; negative | mutagenic call [4]: inactive; negative | mutagenic call [5]: inactive; negative | mutagenic call (Test System: AMES SALMONELLA TYPHIMURIUM, Strain/Indicator: TA102, Metabolic Activation: NONE, Method: STANDARD PLATE): inactive; negative | mutagenic call (Test System: AMES SALMONELLA TYPHIMURIUM, Strain/Indicator: TA102, Metabolic Activation: S-9, Method: STANDARD PLATE): inactive; negative | mutagenic call (Test System: E.COLI, Strain/Indicator: WP2 (PKM101), Metabolic Activation: NONE, Method: STANDARD PLATE): inactive; negative | mutagenic call (Test System: E.COLI, Strain/Indicator: WP2 (PKM101), Metabolic Activation: S-9, Method: STANDARD PLATE): inactive; negative

CCCCCOc1ccc(N=O)cc1
mutagenic call [4]: active; positive

CSC[C@H](N)C(=O)O
mutagenic call [1]: inactive; negative | mutagenic call (Test System: AMES SALMONELLA TYPHIMURIUM, Strain/Indicator: TA98, Metabolic Activation: RAT, LIVER OR KIDNEY, MICROSOMES, Method: PREINCUBATION): inactive; negative | mutagenic call [2]: inactive; negative | mutagenic call (Test System: AMES SALMONELLA TYPHIMURIUM, Strain/Indicator: TA100, Metabolic Activation: RAT, LIVER OR KIDNEY, MICROSOMES, Method: PREINCUBATION): inactive; negative | mutagenic call (Test System: AMES SALMONELLA TYPHIMURIUM, Strain/Indicator: TA102, Metabolic Activation: NONE, Method: PREINCUBATION): inactive; negative | mutagenic call (Test System: AMES SALMONELLA TYPHIMURIUM, Strain/Indicator: TA102, Metabolic Activation: RAT, LIVER OR KIDNEY, MICROSOMES, Method: PREINCUBATION): inactive; negative | mutagenic call (Test System: AMES SALMONELLA TYPHIMURIUM, Strain/Indicator: TA2638, Metabolic Activation: NONE, Method: PREINCUBATION): inactive; negative | mutagenic call (Test System: AMES SALMONELLA TYPHIMURIUM, Strain/Indicator: TA2638, Metabolic Activation: RAT, LIVER OR KIDNEY, MICROSOMES, Method: PREINCUBATION): inactive; negative
